# Assay results from US12351581B2, “Compounds for FGFR inhibition” (Cogent Biosciences, Inc., priority 2023, dated 2025).
# Read-outs that look alike come from different tables or passages of the source.
# Key:
# FGFR2 = target: T1, FGFR2 (Homo sapiens, UniProt P21802); assay: FGFR wild type enzyme assay (HTRF KinEASE-TK); type: biochemical; conditions: ATP 2 uM
# T1 construct: biochemical assays using purified intracellular domains of the respective isoforms; purchased Carna Bioscience 08-134
# Description: (§1) Activity against FGFR wild type and mutant enzymes were determined in biochemical assays using purified intracellular domains of the respective isoforms using HTRF KinEASE-TK assay technology from CisBio, now PerkinElmer. (Catalogue number 62TK0PEC). Briefly test compounds were tested in 11 point 1:3 serial dilutions, typical final concentration range from 10,000 nM to 0.17 nM. Test compounds were dissolved in DMSO and added to assay plates using acoustic transfer. Enzyme was pre-incubated with test compound for 30 minutes and the assay was initiated by addition of ATP and TK-peptide substrate. After 60 minutes at room temperature the reaction was quenched with detection reagent and incubated for an additional 60 minutes at room temperature. The plates were read using a multimode reader and the emission ratio of 665 nm to 615 nm was determined. This ratio was converted to percent of control (POC). [1-(high control-sample signal)/(high control-low control)]*100. Wells without compound were used to determine high control values and wells without enzyme were used to determine low control values. The POC values were fit using a four-parameter logistic model and the value where the fit curve was equal to 50 POC was reported as the IC50 using the Signals Vitro Vivo software package (PerkinElmer). Final assay conditions were: 50 mM HEPES pH7.5, 10 mM MgCl2, 1 mM EDTA, 0.01% Brij-35, 2 mM MnCl2, 1 mM DTT, and 0.5 uM TK-peptide. The enzyme source, catalogue number, final enzyme concentration, and final ATP concentration can be found in the tables 1-2 below.
# FGFR2-WT = FGFR2-WT (Homo sapiens, UniProt P21802); assay: Phosphorylated FGFR2-WT (pFGFR2-WT) cell assay, KATOIII cells; type: cell-based; conditions: 1 hour incubation, phospho FGFR2 HTRF
# Description: KATOIII cells were grown in the appropriate growth medium, IMDM supplemented with 20% fetal bovine serum. Cells were seeded into a 384-well at 1×10^5 cells/25 μL/well. Cells were treated with compound using three-fold serial dilutions at final concentrations ranging from 10 μM to 0.5 nM. Compound was incubated on cells for 1 hour at 37° C., 5% CO2.
# Following the 1-hour incubation with compounds, cell lysates were prepared and phospho FGFR2 was measured using the HTRF Phospho-FGFR2 (TYR653/654) Detection Kits (CisBio, cat #64FGFR2Y6PEG). 8 μL of cell lysis buffer (4×) supplied with 1× Phospho and Total protein blocking reagent (CisBio, cat #64FGFR2Y6PEG, CisBio, cat #64KB1AAC) was then added to the wells. Cells were incubated with lysis buffer for 40 minutes at 4° C. under shaking conditions. Plates were centrifuged at 1500 rpm for 3 min and then 16 μL of cell lysate was transferred from the cell-culture plate to a small volume detection plate with the added premixed antibody solutions (4 μL) (CisBio, cat #64FGFR2Y6PEG). Plates were centrifuged at 1000 rpm for 1 min then incubated at 25° C. for 120 min, then overnight at 4° C. Plates were read on the En Vision multimode plate reader via HTRF dual wavelength detection. One hundred percent of control (POC) was determined using DMSO treated samples, and 0 POC was determined using the top concentration of a control compound. A 4-parameter logistic curve was fit to the POC values as a function of compound concentration to determine the IC50 value.
# FGFR2 N549H = target: T2, FGFR2 N549H (Homo sapiens, UniProt P21802, N549H); assay: FGFR mutant enzyme assay (HTRF KinEASE-TK); type: biochemical; conditions: ATP 0.9 uM
# T2 construct: biochemical assays using purified intracellular domains of the respective isoforms; purchased Carna Bioscience 08-532
# Description: as §1
# FGFR2 V564F = target: T3, FGFR2 V564F (Homo sapiens, UniProt P21802, V564F); assay: FGFR mutant enzyme assay (HTRF KinEASE-TK); type: biochemical; conditions: ATP 1.5 uM
# T3 construct: biochemical assays using purified intracellular domains of the respective isoforms; purchased SignalChem Biotech F05-12FG
# Description: as §1
# FGFR2 V564I = target: T4, FGFR2 V564I (Homo sapiens, UniProt P21802, V564I); assay: FGFR mutant enzyme assay (HTRF KinEASE-TK); type: biochemical; conditions: ATP 0.4 uM
# T4 construct: biochemical assays using purified intracellular domains of the respective isoforms; purchased Carna Bioscience 08-546
# Description: as §1
# [1] = compound table after the examples, read-out: Enz FGFR2
# FGFR2-WT, sequence (P21802 430-767 limits assumed): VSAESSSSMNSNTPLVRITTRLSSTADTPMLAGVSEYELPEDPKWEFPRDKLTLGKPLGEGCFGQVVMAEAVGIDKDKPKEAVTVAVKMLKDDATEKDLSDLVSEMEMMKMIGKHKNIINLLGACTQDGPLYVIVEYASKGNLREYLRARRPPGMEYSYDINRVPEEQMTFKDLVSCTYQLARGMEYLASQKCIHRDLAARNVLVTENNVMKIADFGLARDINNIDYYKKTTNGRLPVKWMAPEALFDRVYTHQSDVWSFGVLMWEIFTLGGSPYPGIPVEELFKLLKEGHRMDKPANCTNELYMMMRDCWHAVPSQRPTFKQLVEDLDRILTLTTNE
# T1 sequence (P21802 399-821 limits assumed): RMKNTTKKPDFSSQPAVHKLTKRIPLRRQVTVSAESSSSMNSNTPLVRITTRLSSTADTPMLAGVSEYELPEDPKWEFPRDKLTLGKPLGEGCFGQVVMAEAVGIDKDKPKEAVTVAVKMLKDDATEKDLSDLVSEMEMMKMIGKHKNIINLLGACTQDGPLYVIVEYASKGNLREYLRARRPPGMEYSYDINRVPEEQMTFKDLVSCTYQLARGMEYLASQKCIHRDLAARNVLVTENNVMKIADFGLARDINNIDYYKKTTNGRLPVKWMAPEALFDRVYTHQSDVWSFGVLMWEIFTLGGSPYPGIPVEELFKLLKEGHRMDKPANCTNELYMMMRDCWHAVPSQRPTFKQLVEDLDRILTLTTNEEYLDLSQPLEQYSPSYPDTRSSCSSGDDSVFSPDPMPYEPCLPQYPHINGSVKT
# T2 sequence (P21802 399-821 N549H limits assumed): as the sequence (P21802 399-821 limits assumed) above, with N151H counted along it
# T4 sequence (P21802 399-821 V564I limits assumed): as the sequence (P21802 399-821 limits assumed) above, with V166I counted along it
# T3 sequence (P21802 399-821 V564F limits assumed): as the sequence (P21802 399-821 limits assumed) above, with V166F counted along it
Structure (SMILES),"IC50 (FGFR2; Table 3, read-out: FGFR2 Enz) [nM]",IC50 (FGFR2; [1]) [nM],IC50 (FGFR2-WT) [nM],IC50 (FGFR2 N549H) [nM],IC50 (FGFR2 V564F) [nM],IC50 (FGFR2 V564I) [nM]
"C[C@H](O)C(=O)N1CCC(n2cc(-c3cc(O[C@H](C)c4ccc(F)cn4)c4c(C#N)cnn4c3)cn2)CC1 [Compound 19, 4-((R)-1-(5-fluoropyridin-2-yl)ethoxy)-6-(1-(1-((S)-2-hydroxypropanoyl)piperidin-4-yl)-1H-pyrazol-4-yl)pyrazolo[1,5-a]pyridine-3-carbonitrile]",0.15,0.15,1.25,0.1,0.3,0.4
"Cc1c(-c2cc(O[C@H](C)c3ccc(F)cn3)c3c(C#N)cnn3c2)cnn1[C@H]1CCCN(C(=O)[C@H](C)O)C1 [Compound 18, 4-((R)-1-(5-fluoropyridin-2-yl)ethoxy)-6-(1-((S)-1-((S)-2-hydroxypropanoyl)piperidin-3-yl)-5-methyl-1H-pyrazol-4-yl)pyrazolo[1,5-a]pyridine-3-carbonitrile]",0.5,0.6,4,0.5,1,2
"C[C@@H](Oc1cc(-c2cnn(C3CCNCC3)c2)cn2ncc(C#N)c12)c1ccccn1 [Compound 2, (R)-6-(1-(piperidin-4-yl)-1H-pyrazol-4-yl)-4-(1-(pyridin-2-yl)ethoxy)pyrazolo[1,5-a]pyridine-3-carbonitrile]",0.16,0.16,2.5,0.05,0.14,0.24
"Cc1c(-c2cc(O[C@H](C)c3ccc(F)cn3)c3c(C#N)cnn3c2)cnn1[C@H]1CC[C@](C)(O)CC1 [Compound 22, 4-((R)-1-(5-fluoropyridin-2-yl)ethoxy)-6-(1-((1r,4R)-4-hydroxy-4-methylcyclohexyl)-5-methyl-1H-pyrazol-4-yl)pyrazolo[1,5-a]pyridine-3-carbonitrile]",0.3,0.3,2.7,0.4,1,1.4
"Cc1nn(C2CCNCC2)c(C)c1-c1cc(O[C@H](C)c2ccccn2)c2c(C#N)cnn2c1 [Compound 4, (R)-6-(3,5-dimethyl-1-(piperidin-4-yl)-1H-pyrazol-4-yl)-4-(1-(pyridin-2-yl)ethoxy)pyrazolo[1,5-a]pyridine-3-carbonitrile]",1,1,26,2,3,4
"Cc1c(-c2cc(O[C@H](c3ccc(F)cn3)C(F)(F)F)c3c(C#N)cnn3c2)cnn1[C@H]1CC[C@H](O)CC1 [Compound 70, 6-(1-((1r,4R)-4-hydroxycyclohexyl)-5-methyl-1H-pyrazol-4-yl)-4-((R)-2,2,2-trifluoro-1-(5-fluoropyridin-2-yl)ethoxy)pyrazolo[1,5-a]pyridine-3-carbonitrile]",110,110,790,160,219,420
"Cc1nn(C[C@H](O)CO)cc1-c1cc(O[C@H](C)c2ccc(F)cn2)c2c(C#N)cnn2c1 [Compound 28, 6-(1-((S)-2,3-dihydroxypropyl)-3-methyl-1H-pyrazol-4-yl)-4-((R)-1-(5-fluoropyridin-2-yl)ethoxy)pyrazolo[1,5-a]pyridine-3-carbonitrile]",3,3,17,5,10,12
"Cc1c(-c2cc(O[C@H](C)c3ccc(Cl)cn3)c3c(C#N)cnn3c2)cnn1[C@H]1CCCNC1 [Compound 14, 4-((R)-1-(5-chloropyridin-2-yl)ethoxy)-6-(5-methyl-1-((S)-piperidin-3-yl)-1H-pyrazol-4-yl)pyrazolo[1,5-a]pyridine-3-carbonitrile]",12.5,12.5,267,14,15,38
"Cc1c(-c2cc(O[C@H](C)c3ccc(F)cn3)c3c(C#N)cnn3c2)cnn1C1CCN(C(=O)[C@H](C)O)CC1 [Compound 41, 4-((R)-1-(5-fluoropyridin-2-yl)ethoxy)-6-(1-(1-((S)-2-hydroxypropanoyl)piperidin-4-yl)-5-methyl-1H-pyrazol-4-yl)pyrazolo[1,5-a]pyridine-3-carbonitrile]",0.5,0.5,4,0.7,2,2
"C[C@@H](Oc1cc(-c2cnn(C)c2N)cn2ncc(C#N)c12)c1ccc(F)cn1 [Compound 30, (R)-6-(5-amino-1-methyl-1H-pyrazol-4-yl)-4-(1-(5-fluoropyridin-2-yl)ethoxy)pyrazolo[1,5-a]pyridine-3-carbonitrile]",1,1,9,2,3.7,6
"Cc1c(-c2cc(O[C@H](C)c3ccc(F)cn3)c3c(C#N)cnn3c2)cnn1[C@@H]1CCC[C@H](O)C1 [Compound 72, 4-((R)-1-(5-fluoropyridin-2-yl)ethoxy)-6-(1-((1R,3S)-3-hydroxycyclohexyl)-5-methyl-1H-pyrazol-4-yl)pyrazolo[1,5-a]pyridine-3-carbonitrile]",0.4,0.4,3,0.45,1,1.5
"Cc1c(-c2cc(O[C@H](C)c3ccc(F)cn3)c3c(C#N)cnn3c2)cnn1C1CCN(C(=O)CO)CC1 [Compound 42, (R)-4-(1-(5-fluoropyridin-2-yl)ethoxy)-6-(1-(1-(2-hydroxyacetyl)piperidin-4-yl)-5-methyl-1H-pyrazol-4-yl)pyrazolo[1,5-a]pyridine-3-carbonitrile]",0.6,0.6,4,0.65,1.7,2
"Cc1c(-c2cc(O[C@H](C)c3ccc(F)cn3)c3c(C#N)cnn3c2)cnn1[C@H]1CCCN(C(CO)CO)C1 [Compound 38, 6-(1-((S)-1-(1,3-dihydroxypropan-2-yl)piperidin-3-yl)-5-methyl-1H-pyrazol-4-yl)-4-((R)-1-(5-fluoropyridin-2-yl)ethoxy)pyrazolo[1,5-a]pyridine-3-carbonitrile]",0.4,0.4,6,0.3,1,1.3
"Cc1c(-c2cc(O[C@H](C)c3ccc(F)cn3)c3c(C#N)cnn3c2)cnn1[C@@H]1CCCN(C(=O)[C@H](C)O)C1 [Compound 49, 4-((R)-1-(5-fluoropyridin-2-yl)ethoxy)-6-(1-((R)-1-((S)-2-hydroxypropanoyl)piperidin-3-yl)-5-methyl-1H-pyrazol-4-yl)pyrazolo[1,5-a]pyridine-3-carbonitrile]",2.6,2.6,15,3,8,10
"C[C@@H](Oc1cc(-c2nnn(C)c2N)cn2ncc(C#N)c12)c1ccc(F)cn1 [Compound 34, (R)-6-(5-amino-1-methyl-1H-1,2,3-triazol-4-yl)-4-(1-(5-fluoropyridin-2-yl)ethoxy)pyrazolo[1,5-a]pyridine-3-carbonitrile]",2.6,2.6,17,3,10,12
